# Results from patent US8518968B2, “Hydrazone and diacyl hydrazine compounds and methods of use” (The United States of America, as represented by the …, priority 2009, dated 2013).
# Where two headings read alike, the source gives them in different places.
# How the values were obtained:
# [1] = molecular target: T1, p97 (Homo sapiens, UniProt P55072); test: Avidin bead pull-down of p97 with immobilized B-NFC; format: binding; details: monomeric avidin beads, biotin beads as negative control
# [2] = molecular target: N-ethylmaleimide-sensitive factor (NSF) (Homo sapiens, UniProt P46459); test: Avidin bead pull-down of NSF with immobilized B-NFC; format: binding; details: avidin beads
# N-ethylmaleimide-sensitive factor (NSF), sequence (P46459 whole entry, species assumed): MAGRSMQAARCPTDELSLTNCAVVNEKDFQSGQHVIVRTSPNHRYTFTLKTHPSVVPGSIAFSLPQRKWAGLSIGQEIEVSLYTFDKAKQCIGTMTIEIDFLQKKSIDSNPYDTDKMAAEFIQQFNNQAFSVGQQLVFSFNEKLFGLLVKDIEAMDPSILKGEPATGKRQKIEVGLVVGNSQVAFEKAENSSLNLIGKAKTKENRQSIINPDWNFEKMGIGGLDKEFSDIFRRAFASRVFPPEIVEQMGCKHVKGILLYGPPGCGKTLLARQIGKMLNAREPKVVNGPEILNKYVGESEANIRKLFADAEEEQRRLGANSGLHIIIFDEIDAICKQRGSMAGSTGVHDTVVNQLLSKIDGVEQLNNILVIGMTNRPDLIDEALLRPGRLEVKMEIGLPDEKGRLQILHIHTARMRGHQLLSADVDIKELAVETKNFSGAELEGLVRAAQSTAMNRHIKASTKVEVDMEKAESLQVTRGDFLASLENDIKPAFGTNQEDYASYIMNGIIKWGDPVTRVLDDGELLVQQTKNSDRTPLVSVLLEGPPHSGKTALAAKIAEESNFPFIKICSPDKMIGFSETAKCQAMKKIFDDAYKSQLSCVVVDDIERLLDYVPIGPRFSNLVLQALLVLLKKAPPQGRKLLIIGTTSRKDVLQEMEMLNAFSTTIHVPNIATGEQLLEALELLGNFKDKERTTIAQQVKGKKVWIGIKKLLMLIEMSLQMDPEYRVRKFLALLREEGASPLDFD
# [3] = test system: JEKO-1 cells; test: cells; details: Homo sapiens, JeKo-1, 48 h, JEKO-1 cells, incubated 2 days, MTT, four parameter logistic fit
# [4] = test system: heat shock protein Hsp70; test: Avidin bead pull-down of Hsp70 with immobilized B-NFC; format: binding; details: avidin beads
# [5] = test system: GFPμ; test: Stabilization of soluble p97 substrate GFPμ in 293T cells; format: cell-based; details: 10 μM
# Procedure: The experiments are performed as described above for TCRα-YFP, except that 293 T cells stably expressing GFP are used.
# [6] = test system: CLL cells; test: Synergy of CBU-028 with bortezomib against CLL cells (MTT); format: cell-based; details: fixed molar relation 1:2000 (BZM:CBU-028), 48 hours
# Procedure: FIG. 6. […] To test for synergy between BZM and CBU-028, CLL cells were incubated in-vitro to increasing concentrations of each compound individually as well as to a combination of both drugs. The combination was tested at a fixed molar relation of 1:2000, e.g. 4 nM BZM was combined with 8 uM CBU-028. 5×10^6 cells/mL were incubated for 48 hours and cell viability was measured with MTT. Synergy is found where the effect of the combination of the two compounds exceeds the additive effect of each compound separately. The left graph shown the result of a representative experiment (CLL—4235) across all concentrations tested. The graph on the right summarizes the data for 7 individual CLL patients.
# [7] = test system: primary chronic lymphocytic leukemia (CLL) cells or normal peripheral blood mononuclear cells (PBMC); test: Cytotoxic activity against primary cells (MTT); format: cell-based; details: 5×10e6 cells/ml, 48 hrs
# Procedure: The cytotoxic activity of CBU-028 or EERI against primary cells is determined as a function of concentration. Cell viability of primary chronic lymphocytic leukemia (CLL) cells or normal peripheral blood mononuclear cells (PBMC) at a concentration of 5×10e6 cells/ml is determined after treatment with CBU-028 or EERI for 48 hrs in triplicates. Viability is determined using the MTT assay, as described previously, with data normalized to the untreated control.
# [8] = test system: JEKO-1 cells stably transfected with shRNAs to luciferase or NOXA; test: Effect of NOXA shRNA on cytotoxicity in JEKO-1 cells (MTT); format: cell-based; details: JEKO-1 shLuc vs shNoxa, 24 hours
# Procedure: The effect of NOXA on cytotoxicity of CBU-028, EERI, or bortezomib is determined. FIG. 4 presents graphs comparing CBU-028, EERI, and bortezomib with respect to percent cell viability as a function of concentration, measured using JEKO-1 cells stably transfected with shRNAs to luciferase (shLuc, control, ▪) or NOXA (shNoxa, ◯, sequence: [NT]) after treatment with the compound for 24 hrs, with viability determined with MTT as described above and normalized to the untreated control.
# [9] = test system: TCRα-YFP; test: Stabilization of ERAD substrate TCRα-YFP in 293T cells; format: cell-based; details: 293T cells stably expressing TCRα-YFP, 10 μM (10 mM in method), 10 h
# Procedure: 293T cells stably expressing TCRα-YFP are treated with the indicated compounds ([…]) or as a control with DMSO for 10 h. Cells are lysed in RIPA buffer (50 mM Tris, pH 7.5, 1% NP40, 0.1% SDS, 0.5% sodium deoxycholate, 150 mM sodium chloride, 2 mM EDTA and a protease inhibitor cocktail). TCRα-YFP is immunoprecipitated from the cell extract using an anti-green fluorescent protein (GFP) antibody. The precipitated material is analyzed by SDS-PAGE and immunoblotting with antibodies against uUb and GFP. The whole cell extracts are also analyzed by SDS-PAGE and immunoblotting with antibodies against p. 97.
# [10] = test system: ATF3, ATF4, NOXA; test: Immunoblot of ER stress markers, NOXA, ubiquitin and histone H2A in JEKO-1 cells; format: cell-based; details: for expression level of ATF3, ATF4 and NOXA: 8 hrs
# [11] = molecular target: p97 ATPase (Homo sapiens, UniProt P55072); test: In vitro ATPase activity of p97; format: biochemical; details: data not shown
# p97 ATPase, sequence (P55072 whole entry): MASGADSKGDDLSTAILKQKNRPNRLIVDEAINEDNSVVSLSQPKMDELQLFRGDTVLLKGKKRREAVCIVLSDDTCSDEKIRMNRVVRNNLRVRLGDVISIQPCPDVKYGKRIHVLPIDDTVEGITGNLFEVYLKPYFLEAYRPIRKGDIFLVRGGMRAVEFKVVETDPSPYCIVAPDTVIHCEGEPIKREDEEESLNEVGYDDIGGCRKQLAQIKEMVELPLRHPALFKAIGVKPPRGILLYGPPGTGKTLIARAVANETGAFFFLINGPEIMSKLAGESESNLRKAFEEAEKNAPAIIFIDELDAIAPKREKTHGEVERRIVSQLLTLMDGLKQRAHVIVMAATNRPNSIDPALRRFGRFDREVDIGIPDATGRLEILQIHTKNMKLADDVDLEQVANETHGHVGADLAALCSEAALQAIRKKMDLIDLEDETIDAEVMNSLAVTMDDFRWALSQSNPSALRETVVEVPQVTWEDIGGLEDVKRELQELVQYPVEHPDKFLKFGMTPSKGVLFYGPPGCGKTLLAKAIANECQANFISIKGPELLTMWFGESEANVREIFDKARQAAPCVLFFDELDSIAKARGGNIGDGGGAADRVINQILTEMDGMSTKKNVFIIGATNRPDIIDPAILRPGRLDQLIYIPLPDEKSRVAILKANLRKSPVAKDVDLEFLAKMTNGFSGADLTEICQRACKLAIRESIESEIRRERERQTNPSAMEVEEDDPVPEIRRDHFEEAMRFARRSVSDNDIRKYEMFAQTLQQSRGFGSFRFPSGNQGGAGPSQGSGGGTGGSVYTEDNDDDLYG
# Procedure: To understand how EerI binding might affect p97 function, in vitro ATPase activity of p97 in the presence of EerI was measured. No effect of EerI on the p97 ATPase activity was found (data not shown).
# [12] = molecular target: T2, recombinant wild type p97 (Homo sapiens, UniProt P55072); test: Surface plasmon resonance binding to recombinant p97; details: SPR, 25° C., recombinant p97 purified from E. coli; read-out: estimated Kd
# T2 construct: made in house; host or cells: E. coli
# T2 sequence (P55072 whole entry): as above
# Procedure: The strength of EerI binding to recombinant p97 purified from E. coli was tested using surface plasma resonance (SPR). Surface plasmon resonance interaction experiments were carried out at 25° C. on a Biacore T100 system (GE healthcare). […] Briefly, the carboxymethyl group of dextran was activated with N-ethyl-N′-(3-dimethylaminopropyl)carbodiimide (EDC) and N-hydroxysuccinimide (NHS). Then, p97 in a 10 mM sodium acetate (pH 4.5) buffer was injected at a flow rate of 10 μl/min with 2 min contact time and immobilized at a level of ˜8,000 RU. Any remaining reactive sites in the flow cell were blocked by ethanolamine. The drug association and dissociation were monitored at a flow rate of […] with the analyte concentration ranging from 3.125 μM to 50 μM in a buffer containing 10 mM HEPES (pH 7.4), 150 mM NaCl, 0.005% v/v Surfactant P20. Regeneration of the chip was achieved by extended washing with the analyte buffer. SPR signal was normalized using a reference flow cell containing no p97. […] The Rmax was then calculated, and the binding relative to the Rmax from three independent experiments was averaged. […]
# The affinity of CBU-028, EERI, and compound 5138380 to purified p97 is measured by surface plasmon resonance (SPR). […] Association and dissociation of the compounds are monitored at a flow rate of 20 μL/min at concentrations ranging from 1.6 μM to 100 μM. […]
# [13] = molecular target: T1, p97; test: Limited trypsin digestion of purified p97; details: purified p97 pre-incubated with compound
# Procedure: Sensitivity of p97 to limited trypsin digestion in the presence and absence of EerI was tested to determine whether binding of EerI to p97 could alter p97 conformation. The purified p97 protein (1.5 μg) was incubated at in a buffer containing 200 ng trypsin in 50 μl volume. Samples were taken out at different time points and mixed with the Laemmli buffer before SDS-PAGE and silver staining analyses.
# [14] = test system: 293T cells; test: Whole genome array gene expression in 293T cells; format: cell-based, human; details: 10 μM, 10 h
# Procedure: To further confirm that both EerI and 5-NA can influence p97 function in cells, the gene expression pattern of EerI-treated cells is compared to that of 5-NA-treated cells using whole genome array hybridization. […] These studies are performed in 293T cells because they are highly transfectable, making them well suited for genetic manipulation by siRNA. Cells were treated with EerI, CBU-028, or 5-NA each at 10 μM in duplicates for 10 h. Total RNA was extracted using TRIzol reagent (Invitrogen, Carlsbad, Calif.), and subsequently purified using an RNeasy MinElute Cleanup kit (QIAGEN, Valencia, Calif.). For array hybridization, RNA samples were processed and analyzed by The National Institute of Diabetes and Digestive and Kidney Diseases (NIDDK) Microarray Core Facility. The Affymetrix gene expression analysis array for the human HG-U133A—2—0 was used (Affymetrix). The microarray signals were analyzed using the Affymetrix RMA algorithm. […] To determine specific pathways, gene pathway analysis were conducted using software from Genego, Inc., using the statistical significant ANOVA gene list (p<0.05, fold change >1.5) represented on the chip. Microarray data is MIAME compliant and that the raw data has been deposited in the Gene Expression Omnibus (GEO) database (accession no. GSE23849).
# [15] = test system: JEKO-1 cells
# [16] = molecular target: T3, membrane associated p97 (Homo sapiens, UniProt P55072); test: Membrane/cytosol fractionation and p97 immunoblot in 293T cells; format: cell-based; details: 10 μM, 6 hr, membrane and cytosol fractions
# T3 construct: endogenous in cells; host or cells: 293T cells
# T3 sequence (P55072 2-806 limits assumed): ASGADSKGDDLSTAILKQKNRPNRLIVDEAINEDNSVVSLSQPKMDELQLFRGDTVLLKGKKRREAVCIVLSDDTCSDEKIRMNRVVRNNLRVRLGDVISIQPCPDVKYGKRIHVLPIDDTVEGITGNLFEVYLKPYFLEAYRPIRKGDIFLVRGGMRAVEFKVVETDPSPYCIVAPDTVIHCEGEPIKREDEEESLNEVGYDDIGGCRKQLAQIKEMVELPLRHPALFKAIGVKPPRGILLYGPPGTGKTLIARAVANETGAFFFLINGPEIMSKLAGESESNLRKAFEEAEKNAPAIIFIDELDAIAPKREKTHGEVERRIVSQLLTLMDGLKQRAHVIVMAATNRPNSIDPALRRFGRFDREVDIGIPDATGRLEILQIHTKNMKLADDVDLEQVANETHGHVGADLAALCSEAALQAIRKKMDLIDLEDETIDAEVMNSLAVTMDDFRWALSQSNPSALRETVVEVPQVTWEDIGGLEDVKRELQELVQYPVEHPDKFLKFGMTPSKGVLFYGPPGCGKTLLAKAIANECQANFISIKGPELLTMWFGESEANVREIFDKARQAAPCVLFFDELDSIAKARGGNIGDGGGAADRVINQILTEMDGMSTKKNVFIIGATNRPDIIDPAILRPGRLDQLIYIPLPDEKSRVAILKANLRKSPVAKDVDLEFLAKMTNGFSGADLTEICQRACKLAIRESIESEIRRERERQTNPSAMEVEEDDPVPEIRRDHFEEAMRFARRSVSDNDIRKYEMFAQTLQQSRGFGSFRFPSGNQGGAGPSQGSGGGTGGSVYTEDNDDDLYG
# Procedure: Cells were fractionated into membrane and cytosol fractions. Proteins extracted from these fractions were analyzed by immunoblotting with antibodies to p97, E1, and Sec61β, and ER-resident protein as shown in FIG. 2 e.
# [17] = test system: p97 mutants (p97ΔN, p97ΔD2); test: Avidin bead pull-down of p97 mutants with immobilized B-NFC; format: binding; details: p97ΔN or p97ΔD2, avidin beads
# p97 mutants (p97ΔN, p97ΔD2), sequence (P55072 209-458 limits assumed, stated change not applied): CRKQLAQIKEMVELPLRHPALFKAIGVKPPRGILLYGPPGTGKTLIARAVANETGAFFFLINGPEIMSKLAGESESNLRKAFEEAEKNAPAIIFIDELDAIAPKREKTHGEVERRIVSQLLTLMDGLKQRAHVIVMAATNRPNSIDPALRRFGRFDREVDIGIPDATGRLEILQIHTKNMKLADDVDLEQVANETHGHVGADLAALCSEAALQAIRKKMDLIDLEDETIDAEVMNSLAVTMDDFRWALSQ
# T1 sequence (P55072 whole entry): as the sequence (P55072 whole entry) above
compound,measurement,setting,value
"O=C(CCCC[C@@H]1SCC2NC(=O)NC21)N/N=C/C=C/c1ccc([N+](=O)[O-])o1 (stereo partly drawn) [CBU-032, (E)-N′-((E)-3-(5-nitrofuran-2-yl)allylidene)-5-((4S)-2-oxohexahydro-1H-thieno[3,4-d]imidazol-4-yl)pentanehydrazide]",precipitation of p97 by immobilized compound,[1],"consistently precipitated more p97, than biotin"
same,binding of NSF to immobilized compound,[2],"neither the heat shock protein Hsp70, nor the homologous AAA ATPase, N-ethylmaleimide-sensitive factor (NSF), showed significant binding"
same,IC50,[3],25 µM
same,binding of Hsp70 to immobilized compound,[4],"neither the heat shock protein Hsp70, nor the homologous AAA ATPase, N-ethylmaleimide-sensitive factor (NSF), showed significant binding"
"O=C(N/N=C/C=C/c1ccc([N+](=O)[O-])o1)c1cc2ccccc2cc1O [CBU-028, (E)-3-hydroxy-N′-((E)-3-(5-nitrofuran-2-yl)allylidene)-2-naphthohydrazide]",stabilization of soluble p97 substrate GFPμ,[5],stabilize the soluble p97 substrate GFPμ in polyubiquitinated forms
same,synergy with bortezomib,[6],Synergizes with Bortezomib
same,sensitivity of PBMC compared with CLL cells,[7],PBMC are less sensitive
same,requirement of NOXA for cytotoxicity,[8],Noxa is equally required
same,stabilization of ERAD substrate TCRα-YFP,[9],stabilize the ERAD substrate TCRα-YFP in polyubiquitinated forms
same,IC50,[3],3 µM
same,NOXA protein level,"[10]; 10 μM, time course",upregulates NOXA protein level
same,expression of ER stress markers ATF3 and ATF4,"[10]; 10 μM, time course",induces expression of the ER stress markers ATF3 and ATF4
same,polyubiquitinated proteins,"[10]; 10 μM, time course",causes accumulation of polyubiquitinated proteins
same,ubiquitinated histone H2A,"[10]; 10 μM, time course",downregulates ubiquitinated histone H2A
CC1(C)C(N(O)C(=O)Nc2ccc(C(F)(F)F)cc2)N(c2ccc(Cl)cc2)C(=O)N1CC(=O)N/N=C/C=C/c1ccc([N+](=O)[O-])o1 (stereo not shown) [CBU-003],stabilization of soluble p97 substrate GFPμ,[5],stabilize the soluble p97 substrate GFPμ in polyubiquitinated forms
same,effect on p97 ATPase activity,[11],No effect
same,Kd,[12],5 to 10 µM
same,sensitivity of PBMC compared with CLL cells,[7],PBMC are less sensitive
same,requirement of NOXA for cytotoxicity,[8],Noxa is equally required
same,stabilization of ERAD substrate TCRα-YFP,[9],stabilize the ERAD substrate TCRα-YFP in polyubiquitinated forms
same,sensitivity of p97 to limited trypsin digestion,[13],caused a delay in the proteolysis of two p97 fragments by trypsin
same,number of genes up- or down-regulated by at least 2-fold by both EerI and 5-NA,[14],29 genes
same,number of genes up- or down-regulated by at least 2-fold only by this compound,[14],25 genes
same,"expression level of ATF3, ATF4 and NOXA",[10]; 10 μM,comparable to that present after treatment with EERI
same,IC50,"[15]; JEKO-1 cells, incubated 2 days, MTT, four parameter logistic fit",3.5 µM
same,location of slow migrating (oligomerized) p97 species induced by compound,[16],"primarily in the membrane fraction, not in the cytosol fraction"
5-nitrofuryl-acrolein,binding of p97 mutants to immobilized compound,[17],also bound
same,number of genes up- or down-regulated by at least 2-fold by both EerI and 5-NA,[14],29 genes
same,number of genes up- or down-regulated by at least 2-fold only by this compound,[14],306 genes
same,"expression level of ATF3, ATF4 and NOXA",[10]; 2.5 μM,comparable to that present after treatment with EERI
same,cell viability / cytotoxic activity (in words),[15],cytotoxic activity at a concentration lower than that shown by EERI
